Some results are limits rather than exact numbers.

In one assay the test system is PANC-1 cells. The assay can be described thus: Quantification of F-2,6-P2 in PANC-1 cells. The format is cell-based. As to conditions: Homo sapiens, PANC-1; read-out: IC50 based on quantification of F-2,6-P2. An excerpt: The relative kinase (formation) and phosphatase (degradation) activities of the bi-functional enzymes PFKFB3 and PFKFB4 control the intracellular levels of the regulator F-2,6-P2, which acts as an allosteric activator of glycolysis. The levels of F-2,6-P2 have been determined in three different cancer cell lines (MCF-7, PANC-1 and NUGC-3) using the van Shaftingen assay. The assay protocols described under “Methods for measurement of enzymatic activity of PFKFB3 and PFKFB4, Method A” have been adapted for the measurement of the inhibitory effect of compounds on the kinase activity of the various isoforms of the bifunctional enzyme (endogenously expressed) in the different cell lines. The modifications are described in the protocol below. All reagents were purchased from commercial sources or prepared inhouse.
Cell Line B (PANC-1, Human Pancreatic Carcinoma Cell Line)
• Cells: PANC-1 (ATCC-CRL-1469). Lot. no: 58564651. • Growth medium: Dulbecco's Modified Eagle's Medium, DMEM, ATCC-30-2002 10% FBS, Invitrogen, 10106-169
Cells were seeded at a concentration of 250 000 cells/mL in 100 μL growth medium (25 000 cells/well)
Starvation medium: DMEM/F12 without phenol red and glucose free, SVA, 991373 0.25% FBS, Invitrogen, 10106-169
Induction medium: DMEM/F12 without phenol red and glucose free, SVA, 991373 0.25% FBS, Invitrogen, 10106-169 (same as starvation medium)
Cells were seeded in 96-well Corning Costar tissue culture plates (CLS3595, Sigma-Aldrich) using the concentrations specified above for the three different cell lines A-C and incubated over night at 37° C. and 5% CO2. Row A was left empty. Next day the growth medium was discarded and replaced with 100 μL starvation medium. The plates were incubated for 18 h at 37° C. and 5% CO2. After 18 h of starvation the cells were induced with 100 μL compound or control solutions. Compounds were either tested in two concentrations (50 μM and 10 μM) or in dose response curves starting from 50 μM and the final DMSO concentration in assay plates was 0.5%. Also a dose response curve of a reference inhibitor was included in row H on each plate. All compounds were tested in duplicate plates. Compounds (in 96 well CLS 3365, Sigma-Aldrich) were serial diluted in DMSO from 10 mM compound DMSO stock solutions with Janus (automated liquid handling workstation from PerkinElmer). 5 μL were transferred to a Greiner deep well plate (736-0155, VWR) with 495 μL starvation medium. The final start concentration of compounds in the dilution plate was 100 μM, 1% DMSO. For compounds tested as single points, 10 mM compound solutions were diluted five fold in DMSO to 2 mM, followed by the transfer of 5 μL to separate dilution plates with 495 μL starvation medium. The final concentration of compounds in these dilution plates were 100 or 20 μM, respectively, and final concentration of DMSO was 1%. The plates were incubated at 37° C. and 5% CO2 for 1 h, followed by the addition of 10 μL 20 mM D-glucose in starvation medium. Controls, with and without 1 mM glucose, were included in row B. The final assay volume was 210 μL per well. After 2 h of incubation at 37° C. and 5% CO2, supernatants were discarded and the cells were lysed by the addition of 25 μL 250 mM NaOH. The plates were incubated at 37° C. and 5% CO2 for 5 min followed by an addition of 75 μL MilliQ dH2O. The supernatants were further diluted with 210 μL MilliQ dH2O to a final concentration of 20 mM NaOH. 200 μL were transferred to NUNC 96-well plates (7322661, VWR) and the plates were sealed and stored at −20° C. until analysis.
The amount of F-2,6-P2 was quantified based on the coupled enzymatic reaction described by Van Schaftingen. If necessary the samples were further diluted in 20 mM NaOH before quantification. Plates stored at −20° C. were thawed and the F-2,6-P2 quantification was initiated by transferring 40 μL from each well of the NUNC plate to the corresponding position in a trans-parent 96-well SpectraPlate-MB (6005649, PerkinElmer). […]
By IC50 is commonly meant the concentration at which inhibition is half-maximal. `COC(=O)c1cccc(NS(=O)(=O)c2sc3ccc(C(C)C)cc3c2C)c1` [Example 92, Methyl 3-({[3-methyl-5-(1-methylethyl)-1-benzothiophen-2-yl]sulfonyl}amino)benzoate]: the IC50 stood at 0.5 µM.

`Cc1c(S(=O)(=O)Nc2cccc(C(=O)OC(C)C)c2)sc2ccc(Cl)cc12` [Example 108, Isopropyl 3-{[(5-chloro-3-methyl-1-benzothien-2-yl)sulfonyl]amino}benzoate]: the IC50 was 3.1 µM.

As for `Cc1c(S(=O)(=O)Nc2cccc(-c3nnn[nH]3)c2)sc2ccc(C(C)C)cc12` [Example 4, 5-Isopropyl-3-methyl-N-[3-(1H-tetrazol-5-yl)phenyl]benzothiophene-2-sulfonamide], the IC50 amounted to 7.5 µM.

As to `COC(=O)c1cccc(NS(=O)(=O)c2sc3c(Cl)cccc3c2C)c1` [Example 122, Methyl 3-{[(7-chloro-3-methyl-1-benzothiophen-2-yl)sulfonyl]amino}benzoate], the IC50 turned out to be 8.7 µM.

With `COC(=O)c1cccc(NS(=O)(=O)c2sc3c(OC)cccc3c2C)c1` [Example 121, Methyl 3-{[(7-methoxy-3-methyl-1-benzothiophen-2-yl)sulfonyl]amino}benzoate], the IC50 came to 9 µM.

Consider `COC(=O)Cn1nnc(-c2cccc(NS(=O)(=O)c3sc4ccc(C(C)C)cc4c3C)c2)n1` [Example 119, Methyl {5-[3-({[3-methyl-5-(1-methylethyl)-1-benzothiophen-2-yl]sulfonyl}amino)phenyl]-2H-tetrazol-2-yl}acetate], for which the IC50 was 7 µM.

For the compound `Cc1c(S(=O)(=O)Nc2cccc(C(=O)OC3CCOC3)c2)sc2ccc(Cl)cc12` (stereo not drawn) [Example 116, Tetrahydrofuran-3-yl 3-{[(5-chloro-3-methyl-1-benzothiophen-2-yl)sulfonyl]amino}benzoate], the IC50 turned out to be 1.3 µM.

As to `Cc1c(S(=O)(=O)Nc2cccc(C(=O)OCCCN(C)C)c2)sc2ccc(Cl)cc12` [Example 118, 3-(Dimethylamino)propyl 3-{[(5-chloro-3-methyl-1-benzothiophen-2-yl)sulfonyl]amino}benzoate], the IC50 is 2.8 µM.

As for `COC(=O)c1cccc(NS(=O)(=O)c2ccc(-c3csc(C)n3)s2)c1` [Example 88, Methyl 3-({[5-(2-methyl-1,3-thiazol-4-yl)-2-thienyl]sulfonyl}amino)benzoate], the IC50 stood at 5.4 µM.

`CCCOC(=O)c1cccc(NS(=O)(=O)c2sc3ccc(Cl)cc3c2C)c1` [Example 112, Propyl 3-{[(5-chloro-3-methyl-1-benzothien-2-yl)sulfonyl]amino}benzoate]: the half-maximal inhibitory concentration (IC50) amounted to 4.3 µM.

Regarding `COC(=O)c1cccc(NS(=O)(=O)c2sc3ccc(Br)cc3c2C)c1` [Example 120, Methyl 3-{[(5-bromo-3-methyl-1-benzothiophen-2-yl)sulfonyl]amino}benzoate], the IC50 was 3.5 µM.

Staying with this assay, now noted: Homo sapiens; at 12.5 μM in PANC-1 cells.
Broadly, the inhibition is the drop in the measured response relative to a control, in per cent. Higher therefore signals a strong effect. As for `CCOC(=O)c1sc(NS(=O)(=O)c2sc3ccc(Cl)cc3c2C)nc1C` [Example 126, Ethyl 2-{[(5-chloro-3-methyl-1-benzothiophen-2-yl)sulfonyl]amino}-4-methyl-1,3-thiazole-5-carboxylate], the inhibition at 12.5 µM was greater than 50%.

On to `CCCCCOC(=O)c1cccc(NS(=O)(=O)c2sc3ccc(Cl)cc3c2C)c1` [Example 113, Pentyl 3-{[(5-chloro-3-methyl-1-benzothiophen-2-yl)sulfonyl]amino}benzoate], for which the inhibition at 12.5 µM was greater than 50%.

Consider `CCOC(=O)c1sc(NS(=O)(=O)c2cc(-c3cc(F)ccc3F)c(Cl)s2)nc1C` [Example 127, Ethyl 2-({[5-chloro-4-(2,5-difluorophenyl)thiophen-2-yl]sulfonyl}amino)-4-methyl-1,3-thiazole-5-carboxylate], for which the inhibition at 12.5 µM was greater than 50%.

On to `Cc1c(S(=O)(=O)Nc2cccc(C(=O)OCc3ccccc3)c2)sc2ccc(Cl)cc12` [Example 111, Benzyl 3-{[(5-chloro-3-methyl-1-benzothiophen-2-yl)sulfonyl]amino}benzoate], for which the inhibition at 12.5 µM is greater than 50%.

Turning to `COC(=O)c1cccc(NS(=O)(=O)c2oc3ccc(C(C)C)cc3c2C)c1` [Example 123, Methyl 3-({[3-methyl-5-(1-methylethyl)-1-benzofuran-2-yl]sulfonyl}amino)benzoate], the inhibition at 12.5 µM was greater than 50%.

The compound `COCCOC(=O)c1cccc(NS(=O)(=O)c2sc3ccc(Cl)cc3c2C)c1` [Example 109, 2-Methoxyethyl 3-{[(5-chloro-3-methyl-1-benzothiophen-2-yl)sulfonyl]amino}benzoate] gave an inhibition at 12.5 µM greater than 50%.

The compound `CCOC(=O)c1cccc(NS(=O)(=O)c2sc3ccc(Cl)cc3c2C)c1` [Example 107, Ethyl 3-{[(5-chloro-3-methyl-1-benzothien-2-yl)sulfonyl]amino}benzoate] yielded an inhibition at 12.5 µM greater than 50%.

The compound `Cc1c(S(=O)(=O)Nc2cccc(C(=O)Oc3ccccc3)c2)sc2ccc(Cl)cc12` [Example 115, Phenyl 3-{[(5-chloro-3-methyl-1-benzothiophen-2-yl)sulfonyl]amino}benzoate] returned an inhibition at 12.5 µM greater than 50%.

The compound `Cc1c(S(=O)(=O)Nc2cccc(C(=O)OCCn3cccc3)c2)sc2ccc(Cl)cc12` [Example 106, 2-(1H-Pyrrol-1-yl)ethyl 3-{[(5-chloro-3-methyl-1-benzothien-2-yl)sulfonyl]amino}benzoate] showed an inhibition at 12.5 µM greater than 50%.

The compound `Cc1c(S(=O)(=O)Nc2cccc(C(=O)OCC3CCOC3)c2)sc2ccc(Cl)cc12` (stereo not drawn) [Example 117, Tetrahydrofuran-3-ylmethyl 3-{[(5-chloro-3-methyl-1-benzothiophen-2-yl)sulfonyl]amino}benzoate] gave an inhibition at 12.5 µM greater than 50%.
